Laboratory results taken from ChEMBL document CHEMBL1145893, “Three-dimensional quantitative structure-activity relationship analysis of propafenone-type multidrug resistance modulators: influence of variable selection on test set predictivity” (J Med Chem, 2003).

test system: CCRF-CEM/VCR-1000; experiment: In vitro multi drug resistance (MDR) reversal inhibitory activity against CCRF-CEM/VCR-1000 cell line; type: functional, cell-based; details: Homo sapiens

First: CCCNCC(O)c1oc2ccccc2c1CC (stereo not given)
Second: CCCNCC(O)c1oc2ccccc2c1CCc1ccccc1 (stereo not given)
The IC50 of the first is 7.6-fold higher: 439000 nM for the first, 58100 nM for the second.

Going from `CCCNCCc1oc2ccccc2c1CCc1ccccc1` to `CC(C)NCCc1oc2ccccc2c1CCc1ccccc1`, the IC50 rises from 8560 nM to 20200 nM (2.4-fold). The first is the more potent here.

Compared with `CN(C)CC(O)COc1ccccc1C(=O)CCc1ccccc1` (stereo not given), `CCCN(C)CC(O)COc1ccccc1C(=O)CCc1ccccc1` (stereo not given) is 5.4-fold lower in IC50: 2640 nM for the first, 490 nM for the second. The second is the more potent here.

Compared with `CC(=O)c1ccccc1OCC(O)CN1CCN(c2ccc(F)cc2)CC1` (stereo not given), `CC(=O)c1cccc(OCC(O)CN2CCN(c3ccc(F)cc3)CC2)c1` (stereo not given) is 3-fold higher in IC50: 3840 nM for the first, 11400 nM for the second. The first is the more potent here.

Going from `CCC(=O)c1ccccc1OCC(O)CN1CCOCC1` (stereo not given) to `CCC(=O)c1ccccc1OCC(O)CN1CCCCC1` (stereo not given), the IC50 falls from 207000 nM to 6840 nM (30-fold). The second is the more potent here.

First: COc1ccccc1N1CCN(CC(=O)c2oc3ccccc3c2CCc2ccccc2)CC1
Second: COc1ccccc1N1CCN(CC(O)c2oc3ccccc3c2CCc2ccccc2)CC1 (stereo not given)
The IC50 of the first is 19-fold higher: 16600 nM for the first, 880 nM for the second.

First: O=C(CCc1ccccc1)c1cc(OCc2ccccc2)ccc1OCC(O)CN1CCN(Cc2ccccc2)CC1 (stereo not given)
Second: O=C(CCc1ccccc1)c1ccccc1OCC(O)CN1CCN(Cc2ccccc2)CC1 (stereo not given)
The IC50 of the first is 3.2-fold lower: 120 nM for the first, 380 nM for the second. The first is the more potent here.

Going from `O=C(CCc1ccccc1)c1ccccc1OCC(O)CNCc1ccccc1` (stereo not given) to `O=C(CCc1ccccc1)c1ccccc1OCC(O)CNc1ccccc1` (stereo not given), the IC50 rises from 760 nM to 6470 nM (8.5-fold). The first is the more potent here.

Compared with `O=C(CCc1ccccc1)c1ccccc1OCC(O)CNCC(c1ccccc1)c1ccccc1` (stereo not given), `O=C(CCc1ccccc1)c1ccccc1OCC(O)CNCCC(c1ccccc1)c1ccccc1` (stereo not given) is 8-fold higher in IC50: 90 nM for the first, 720 nM for the second.

Going from `O=C(CCc1ccccc1)c1ccc(OCC(O)CN2CCOCC2)cc1` (stereo not given) to `O=C(CCc1ccccc1)c1ccc(OCC(O)CN2CCCCC2)cc1` (stereo not given), the IC50 falls from 6860 nM to 1360 nM (5-fold).

Compared with `O=C(CCc1ccccc1)c1ccccc1OCC(O)CNC1CCCCC1` (stereo not given), `O=C(CCc1ccccc1)c1ccccc1OCC(O)CN1CCCCC1` (stereo not given) is 2-fold higher in IC50: 340 nM for the first, 680 nM for the second.

Going from `O=C(CCc1ccccc1)c1cccc(OCC(O)CN2CCN(c3ccc(F)cc3)CC2)c1` (stereo not given) to `O=C(CCc1ccccc1)c1ccc(OCC(O)CN2CCN(c3ccc(F)cc3)CC2)cc1` (stereo not given), the IC50 rises from 1120 nM to 2530 nM (2.3-fold).

First: O=C(CCc1ccccc1)c1cccc(OCC(O)CN2CCCCC2)c1 (stereo not given)
Second: O=C(CCc1ccccc1)c1ccccc1OCC(O)CN1CCCC1 (stereo not given)
The IC50 of the first is 4.7-fold lower: 390 nM for the first, 1820 nM for the second.

First: COC(CCc1ccccc1)c1ccccc1OCC(O)CN(C(C)C)C(C)C (stereo not given)
Second: CC(C)N(CC(O)COc1ccccc1C(O)CCc1ccccc1)C(C)C (stereo not given)
The IC50 of the first is 2.6-fold lower: 660 nM for the first, 1740 nM for the second.

Compared with `COC(CCc1ccccc1)c1ccccc1OCC(O)CN1CCN(c2ccc(F)cc2)CC1` (stereo not given), `OC(COc1ccccc1C(O)CCc1ccccc1)CN1CCN(c2ccc(F)cc2)CC1` (stereo not given) is 2.9-fold higher in IC50: 230 nM for the first, 670 nM for the second. The first is the more potent here.

First: COC(CCc1ccccc1)c1ccccc1OCC(O)CN1CCCCC1 (stereo not given)
Second: OC(COc1ccccc1C(O)CCc1ccccc1)CN1CCCCC1 (stereo not given)
The IC50 of the first is 1.7-fold lower: 770 nM for the first, 1340 nM for the second. The first is the more potent here.

First: CC(=O)c1ccc(OCC(O)CN2CCN(c3ccc(F)cc3)CC2)cc1 (stereo not given)
Second: O=C(c1ccccc1)c1ccccc1OCC(O)CN1CCN(c2ccc(F)cc2)CC1 (stereo not given)
The IC50 of the first is 28-fold higher: 11900 nM for the first, 420 nM for the second.

First: COc1cccc(N2CCN(CC(O)COc3ccccc3C(=O)CCc3ccccc3)CC2)c1 (stereo not given)
Second: COc1ccc(N2CCN(CC(O)COc3ccccc3C(=O)CCc3ccccc3)CC2)cc1 (stereo not given)
The IC50 of the first is 1.5-fold lower: 120 nM for the first, 180 nM for the second. The first is the more potent here.

Going from `CC(=O)c1ccc(OCC(O)CN2CCOCC2)cc1` (stereo not given) to `CC(=O)c1cccc(OCC(O)CN2CCOCC2)c1` (stereo not given), the IC50 falls from 302000 nM to 118000 nM (2.6-fold). The second is the more potent here.

`O=C(CCc1cccc2ccccc12)c1ccccc1OCC(O)CN1CCC(O)(c2ccccc2)CC1` (stereo not given) and `O=C(CCc1ccccc1)c1ccccc1OCC(O)CN1CCC(O)(c2ccccc2)CC1` (stereo not given) are the same in IC50: 70 nM for the first, 70 nM for the second.

`COC(CCc1ccccc1)c1ccccc1OCC(O)CNCCC(c1ccccc1)c1ccccc1` (stereo not given) and `O=C(CCc1cccc2ccccc12)c1ccccc1OCC(O)CNCCC(c1ccccc1)c1ccccc1` (stereo not given) are within 1.5-fold of each other in IC50: 750 nM for the first, 720 nM for the second.

Compared with `CC(C)N(CC(O)COc1ccc(C(=O)CCc2ccccc2)cc1)C(C)C` (stereo not given), `CC(C)N(CC(O)COc1ccccc1C(=O)CCc1ccccc1)C(C)C` (stereo not given) is 3-fold lower in IC50: 920 nM for the first, 310 nM for the second. The second is the more potent here.

First: O=C(CCc1ccccc1)c1ccccc1OCC(O)CN1CCN(c2ccccc2)CC1 (stereo not given)
Second: Cc1ccccc1N1CCN(CC(O)COc2ccccc2C(=O)CCc2ccccc2)CC1 (stereo not given)
The IC50 of the first is 4.2-fold higher: 210 nM for the first, 50 nM for the second. The second is the more potent here.

Compared with `O=C(CCc1ccccc1)c1cc(O)ccc1OCC(O)CN1CCN(Cc2ccccc2)CC1` (stereo not given), `O=C(CCc1ccccc1)c1cc(OCc2ccccc2)ccc1OCC(O)CN1CCCCC1` (stereo not given) is 3.1-fold lower in IC50: 530 nM for the first, 170 nM for the second. The second is the more potent here.

Compared with `COC(=O)c1ccc(NCC(O)COc2ccccc2C(=O)CCc2ccccc2)cc1` (stereo not given), `CCCNCC(O)COc1ccccc1C(=O)CCc1ccccc1` (stereo not given) [PROPAFENONE] is 2.3-fold lower in IC50: 2530 nM for the first, 1080 nM for the second. The second is the more potent here.

Compared with `COC(CCc1ccccc1)c1ccccc1OCC(O)CN1CCOCC1` (stereo not given), `OC(COc1ccccc1C(O)CCc1ccccc1)CN1CCOCC1` (stereo not given) is 5.3-fold higher in IC50: 1800 nM for the first, 9540 nM for the second. The first is the more potent here.

First: CC(=O)c1ccc(OCC(O)CN2CCCCC2)cc1 (stereo not given)
Second: CC(=O)c1cccc(OCC(O)CN2CCCCC2)c1 (stereo not given)
The IC50 of the first is 8.4-fold higher: 75900 nM for the first, 9070 nM for the second.

`CCCNCC(O)COc1ccc(OCc2ccccc2)cc1C(=O)CCc1ccccc1` (stereo not given) and `CC(C)N(CC(O)COc1ccc(OCc2ccccc2)cc1C(=O)CCc1ccccc1)C(C)C` (stereo not given) are within 1.5-fold of each other in IC50: 110 nM for the first, 80 nM for the second.

Compared with `CC(=O)c1ccccc1OCC(O)CN1CCC(O)(c2ccccc2)CC1` (stereo not given), `CCC(=O)c1ccccc1OCC(O)CN1CCC(O)(c2ccccc2)CC1` (stereo not given) is 9.4-fold lower in IC50: 2830 nM for the first, 300 nM for the second.

Going from `O=C(CCc1ccccc1)c1cc(O)ccc1OCC(O)CN1CCCCC1` (stereo not given) to `O=C(CCc1ccccc1)c1ccccc1OCC(O)CN1CCOCC1` (stereo not given), the IC50 rises from 2300 nM to 3750 nM (1.6-fold).

Compared with `O=C(c1ccccc1)c1ccccc1OCC(O)CN1CCC(O)(c2ccccc2)CC1` (stereo not given), `COc1ccccc1N1CCN(CC(O)COc2ccccc2C(=O)CCc2ccccc2)CC1` (stereo not given) is 1.7-fold lower in IC50: 190 nM for the first, 110 nM for the second.

Compared with `CC(C)N(CC(O)COc1ccc(O)cc1C(=O)CCc1ccccc1)C(C)C` (stereo not given), `CCCNCC(O)COc1ccc(O)cc1C(=O)CCc1ccccc1` (stereo not given) [5-HYDROXY PROPAFENONE] is 2.9-fold higher in IC50: 1040 nM for the first, 3020 nM for the second. The first is the more potent here.

First: O=C(CCc1ccccc1)c1ccccc1OCC(O)CN1CCN(c2ccc(F)cc2)CC1 (stereo not given)
Second: O=C(CCc1cccc2ccccc12)c1ccccc1OCC(O)CN1CCOCC1 (stereo not given)
The IC50 of the first is 4.9-fold lower: 140 nM for the first, 680 nM for the second.

First: O=C(CCc1cccc2ccccc12)c1ccccc1OCC(O)CN1CCCCC1 (stereo not given)
Second: CC(C)N(CC(O)COc1ccccc1C(=O)CCc1cccc2ccccc12)C(C)C (stereo not given)
The IC50 of the first is 3.2-fold lower: 170 nM for the first, 540 nM for the second. The first is the more potent here.

`O=C(CCc1ccccc1)c1ccccc1OCC(O)CNC(c1ccccc1)c1ccccc1` (stereo not given) and `CCN(CC)CC(O)COc1ccccc1C(=O)CCc1ccccc1` (stereo not given) are within 1.5-fold of each other in IC50: 1020 nM for the first, 910 nM for the second.
